The data set relates to CT26 (mouse colon carcinoma) tumor. The experiment in a line: CT26 colon carcinoma allograft tumor model in BALB/c mice. Type of data set: in vivo. The procedure:
To evaluate the efficacy of a MNK-specific inhibitor in cancer, an in vivo allograft tumor model was used. Briefly, CT26 (mouse colon carcinoma) cells grown in DMEM supplemented with 10% FBS were harvested during exponential growth and counted for tumor inoculation in immune competent BALB/c mice. Each mouse was inoculated with 0.3×10^6 CT26 tumor cells in the right flank region in a 0.2 ml volume comprising a 1:1 ratio (volume to volume) of cells in growth media (0.1 ml) and Matrigel® matrix (0.1 ml) (BD Biosciences, San Jose Calif.). Tumors were allowed to grow to 100-200 mm^3 prior to study initiation. Before beginning treatment, all animals were weighed and tumor volumes measured using a caliper. Since the tumor volume can affect the effectiveness of any given treatment, mice were randomly assigned into vehicle and test article treatment groups after tumors had reached a similar size. Each study group contained 8 mice, with each group receiving one of the following treatments: (1) Compound 107 in 10% 1-methyl-2-pyrrolidinone and 90% propylene glycol and given at a dose of 1 mg/kg orally, once a day; (2) anti-PD1 (BioXcell, Lebanon, N.H.) in PBS and given at a dose of 0.5 mg/mouse intraperitoneally, once every four days (as described by Wei et al., PLoS One 8:e84927, 2013); (3) a combination of Compound 107 at 1 mg/kg orally, once a day and anti-PD1 at 0.5 mg/mouse intraperitoneally, once every four days; (4) vehicle only control.
During the study, tumor size (for subcutaneous implants) was measured in length and width with a caliper twice a week. The tumor volume was calculated by the formula L×W×W/2 according to NCI standards. Tumor growth inhibition (TGI %) is an indication of anti-tumor effectiveness, which is expressed as follows: TGI (%)=100×(1−(ΔT/ΔC)). ΔT and ΔC were the change in mean tumor volume of the treated and control groups, relative to mean tumor volume at the start of treatment. All experiments continued until group mean tumor volume reached about 2000 to 2,500 mm^3 in size. […] Also, the body weight for each mouse was collected at least once prior to the study start, and twice a week during the study. Body weight change is an indication of tolerability, so percent body weight change is calculated as follows: body weight change (%)=100×(body weightend−body weightstart)/body weightstart. Mice were also observed daily for mortality, mobility, hunched posture, piloerection, or other signs of distress while dosing. If a mouse lost greater than 20% body weight due to toxicity, or the combination of toxicity and tumor burden, it was euthanized. If there was apparent toxicity, the mice were taken off treatment and clinical observation and body weight measurement were done daily.

Setting [1] is: 15 days after initiation of dosing.
[2] abbreviates: 22 days after initiation of dosing.

Take `Cc1cc(Nc2cc(N)ncn2)c(=O)n2c1C(=O)NC21CCCCC1.Cl` [Compound 107]: the “Mean Tumor Volume (mm^3) ± SEM” value by setting is: under setting [1], 522.3 ± 174.4; mm^3; under setting [2], 1260.8 ± 499.1 mm^3. In addition, the “Tumor Growth Inhibition (% TGI)” value under setting [1] is given as “about 34%”; the “Tumor Growth Inhibition (% TGI)” value (15 days after initiation of dosing, listed as Cmpd 107) came to 34%; the “Tumor Growth Inhibition (% TGI)” value under setting [2] is recorded as “about 55%”; the “Tumor Growth Inhibition (% TGI)” value (22 days after initiation of dosing, listed as Cmpd 107) is 54%. Further, the “Body Weight Change Average %” value (final day of study (day 22)) was found to be 13.9%.

These data come from patent US10702526B2, “Inhibitors of immune checkpoint modulators and related methods” (eFFECTOR Therapeutics, Inc., priority 2015, dated 2020).
